This note sets out measurements from patent publication US20160304461A1, “QUINOLONE COMPOUND AND PHARMACEUTICAL COMPOSITION” (OTSUKA PHARMACEUTICAL CO., LTD., priority 2007, published 2016).

Structures are written as SMILES.

As to `CCCOc1ccc(F)c2c(=O)c(-c3ccc(C(=O)N4CCCC4)cc3)c[nH]c12` [Example 56, 5-Fluoro-8-propoxy-3-[4-(pyrrolidine-1-carbonyl)phenyl]-1H-quinolin-4-one], the melting point is 236 to 237 °C.
Consider `CCCOc1ccc(F)c2c(=O)c(-c3ccccc3OC)c[nH]c12` [Example 7, 5-Fluoro-3-(2-methoxyphenyl)-8-propoxy-1H-quinolin-4-one], for which the melting point lay in the range of 193 to 195 °C.
`CCCOc1ccc(F)c2c(=O)c(-c3ccc(OC)cc3OC)c[nH]c12` [Example 8, 3-(2,4-Dimethoxyphenyl)-5-fluoro-8-propoxy-1H-quinolin-4-one] returned a melting point of 116 to 118 °C.
Molecule `CCCOc1ccc(F)c2c(=O)c(-c3ccc(CC)cc3)c(C(F)(F)F)[nH]c12` [Example 80, 3-(4-Ethylphenyl)-5-fluoro-8-propoxy-2-trifluoromethyl-1H-quinolin-4-one] came in with a melting point of 187 to 188 °C.
`CCCOc1ccc(F)c2c(=O)c(-c3ccc(O)cc3)c[nH]c12` [Example 95, 5-Fluoro-3-(4-hydroxyphenyl)-8-propoxy-1H-quinolin-4-one] registered a melting point of 271 to 272 °C.
As for `CCCOc1ccc(F)c2c(=O)c(-c3ccc(Oc4ccccc4)cc3)c[nH]c12` [Example 52, 5-Fluoro-3-(4-phenoxyphenyl)-8-propoxy-1H-quinolin-4-one], the melting point was 228 to 230 °C.
The same measure for `CCCOc1ccc(F)c2c(=O)c(-c3ccc(OCC)c(F)c3)c[nH]c12` [Example 50, 3-(4-Ethoxy-3-fluorophenyl)-5-fluoro-8-propoxy-1H-quinolin-4-one]: 176 to 177 °C; for `CCCOc1ccc(Cl)c2c(=O)c(-c3ccc(OC)cc3)c[nH]c12` [Example 103, 5-Chloro-3-(4-methoxyphenyl)-8-propoxy-1H-quinolin-4-one]: 194 to 196 °C.
The value for `COc1ccc(-c2c[nH]c3c(N4CCCC4)ccc(F)c3c2=O)cc1` [Example 18, 5-Fluoro-3-(4-methoxyphenyl)-8-pyrrolidin-1-yl-1H-quinolin-4-one] was 100 to 105 °C; that for `CCCOc1ccc(F)c2c(=O)c(-c3ccc(OCC)cc3)c[nH]c12` [Example 33, 3-(4-Ethoxyphenyl)-5-fluoro-8-propoxy-1H-quinolin-4-one] was 203 to 205 °C.
The value for `CCCOc1ccc(F)c2c(=O)c(-c3ccc(OCC)cc3OC)c[nH]c12` [Example 19, 3-(4-Ethoxy-2-methoxyphenyl)-5-fluoro-8-propoxy-1H-quinolin-4-one] was 118 to 120 °C; that for `CCCOc1ccc(F)c2c(=O)c(-c3ccc(OC(C)C)cc3OC)c[nH]c12` [Example 20, 5-Fluoro-3-(4-isopropoxy-2-methoxyphenyl)-8-propoxy-1H-quinolin-4-one] was 113 to 115 °C.
With `CCCOc1ccc(F)c2c(=O)c(-c3ccc(F)cc3)c(C(F)(F)F)[nH]c12` [Example 81, 5-Fluoro-3-(4-fluorophenyl)-8-propoxy-2-trifluoromethyl-1H-quinolin-4-one], the melting point lay in the range of 154 to 155 °C.
With `CCCOc1ccc(F)c2c(=O)c(-c3cccnc3)c[nH]c12` [Example 49, 5-Fluoro-8-propoxy-3-pyridin-3-yl-1H-quinolin-4-one], the melting point lay in the range of 234 to 236 °C.
As for `CCCOc1ccc(F)c2c(=O)c(-c3ccc(OC)cc3)c(C(F)(F)F)[nH]c12` [Example 77, 5-Fluoro-3-(4-methoxyphenyl)-8-propoxy-2-trifluoromethyl-1H-quinolin-4-one], the melting point was 170 to 171 °C.
With `CCCOc1ccc(F)c2c(=O)c(-c3ccc(N(C)C)cc3)c(C(F)(F)F)[nH]c12` [Example 79, 3-(4-Dimethylaminophenyl)-5-fluoro-8-propoxy-2-trifluoromethyl-1H-quinolin-4-one], the melting point was in the range of 176 to 177 °C.
The same measure for `COc1ccc(-c2c[nH]c3c(OC(C)(C)C)ccc(F)c3c2=O)cc1` [Example 42, 8-tert-Butoxy-5-fluoro-3-(4-methoxyphenyl)-1H-quinolin-4-one]: 206 to 208 °C.
The value for `CCCOc1ccc(F)c2c(=O)c(-c3ccc(OC)cc3O)c[nH]c12` [Example 98, 5-Fluoro-3-(2-hydroxy-4-methoxyphenyl)-8-propoxy-1H-quinolin-4-one] was 208 to 209 °C.
The value for `CCOc1ccc(F)c2c(=O)c(-c3ccc(OC)cc3OC)c[nH]c12` [Example 12, 3-(2,4-Dimethoxyphenyl)-8-ethoxy-5-fluoro-1H-quinolin-4-one] was 154 to 155 °C; that for `CCCOc1ccc(F)c2c(=O)c(-c3ccc(OC)cc3F)c[nH]c12` [Example 17, 5-Fluoro-3-(2-fluoro-4-methoxyphenyl)-8-propoxy-1H-quinolin-4-one] was 230 to 232 °C; that for `CCCOc1ccc(F)c2c(=O)c(-c3ccc(OC(F)(F)F)cc3)c[nH]c12` [Example 5, 5-Fluoro-8-propoxy-3-(4-trifluoromethoxyphenyl)-1H-quinolin-4-one] was 212 to 214 °C.
`CCCOc1ccc(F)c2c(=O)c(-c3ccc(C(C)=O)cc3)c[nH]c12` [Example 54, 3-(4-Acetylphenyl)-5-fluoro-8-propoxy-1H-quinolin-4-one] yielded a melting point of 180 to 181 °C.
The value for `COc1ccc(-c2c[nH]c3c(OC4CCCC4)ccc(Br)c3c2=O)cc1` [Example 104, 5-Bromo-8-cyclopentyloxy-3-(4-methoxyphenyl)-1H-quinolin-4-one] was 213 to 215 °C; that for `COc1ccc(-c2c[nH]c3c(-c4cc5ccccc5s4)ccc(F)c3c2=O)cc1` [Example 88, 8-Benzo[b]thiophen-2-yl-5-fluoro-3-(4-methoxyphenyl)-1H-quinolin-4-one] was 276 to 277 °C; that for `CCCOc1ccc(F)c2c(=O)c(-c3ccsc3C=O)c[nH]c12` [Example 60, 3-(5-Fluoro-4-oxo-8-propoxy-1,4-dihydroquinolin-3-yl)thiophene-2-carbaldehyde] was 190 to 191 °C.
Molecule `COc1ccc(-c2c[nH]c3c(OCC4CCC4)ccc(F)c3c2=O)cc1` [Example 41, 8-Cyclobutylmethoxy-5-fluoro-3-(4-methoxyphenyl)-1H-quinolin-4-one] gave a melting point of 193 to 194 °C.
The value for `COc1ccc(-c2c[nH]c3c(C(=O)N4CCCC4)ccc(F)c3c2=O)cc1` [Example 23, 5-Fluoro-3-(4-methoxyphenyl)-8-(pyrrolidin-1-carbonyl)-1H-quinolin-4-one] was 236 to 237 °C.
The molecule `CCCOc1ccc(F)c2c(=O)c(-c3ccc(C(=O)N(C)C)cc3)c[nH]c12` [Example 57, 4-(5-Fluoro-4-oxo-8-propoxy-1,4-dihydroquinolin-3-yl)-N,N-dimethylbenzamide] registered a melting point of 235 to 237 °C.
For the molecule `CCCOc1ccc(F)c2c(=O)c(-c3ccc(OC)cc3)c(CC)[nH]c12` [Example 48, 2-Ethyl-5-fluoro-3-(4-methoxyphenyl)-8-propoxy-1H-quinolin-4-one], the melting point was 169 to 171 °C.
The value for `COc1ccc(-c2c[nH]c3c(N(C)C(C)C)ccc(F)c3c2=O)cc1` [Example 29, 5-Fluoro-8-(N-isopropyl-N-methylamino)-3-(4-methoxyphenyl)-1H-quinolin-4-one] was 267 to 269 °C.

A word on the melting point: it is the temperature, or range, at which the solid turns liquid.
